PMC11762167, “G Protein-Coupled Receptor 17 Inhibits Glucagon-like Peptide-1 Secretion via a Gi/o-Dependent Mechanism in Enteroendocrine Cells” (Biomolecules, 2024)

Assays:
hGPR17L [1] = biological target: T1, hGPR17L (Homo sapiens, UniProt Q13304); assay: Membrane β-arrestin recruitment in HEK293 cells transfected with hGPR17L; type: cell-based
Method: Membrane β-arrestin recruitment measurements were conducted using a luminescent membrane β-arrestin recruitment reporter assay. HEK293 cells were seeded into white, opaque, poly-D-lysine-coated 96-well plates and transiently transfected using Lipofectamine 3000 (Thermo Fisher Scientific, Waltham, MA, USA) according to the manufacturer’s protocol on the following day. At 48 h post-transfection, cells were washed twice with assay buffer (HBSS, 20 mM HEPES, pH 7.4) and allowed to equilibrate to room temperature for 15 min in assay buffer. Cells were then loaded with coelenterazine h (Nanolight Technology, Prolume Ltd., Lakeside, AZ, USA; 5 µM final concentration) for 5 min in the dark. Luminescence was read using a SpectraMax iD3 (Molecular Devices) with 1 s integration time. Baseline luminescence was read every 2 min for 6 min. Agonist was added and then luminescence was read every 2 min for 30 min.

GLUTag cells [2] = assay: Calcium flux (Calcium 6) in control-transduced GLUTag cells; type: cell-based, murine; parameters: Mean Diff.: unit not given here; settings: for Mean Diff.: Figure 1B, Ctl
Method: (§1) GLUTag cells were maintained in Dulbecco’s Modified Eagle Medium (DMEM) supplemented with 10% fetal bovine serum and 1% penicillin–streptomycin in a humidified incubator at 37 °C and 5% CO2. For adenovirus transduction, GLUTag cells were seeded into poly-D-lysine coated 96-well plates or 4-chamber slides. The next day, cells were transduced with adenoviruses (100–1250 viral particles per cell at time of seeding) as indicated. After 24–30 h, adenovirus-containing media was changed to serum-free growth media for overnight serum starvation. The following day, GLUTag cells were used for cAMP or calcium signaling assays, GLP-1 secretion assays, or immunostaining and imaging.
(§2) GLUTag cells were seeded into black, clear bottom, poly-D-lysine-coated 96-well plates. Cells were transduced and serum starved as specified above. Growth medium was then replaced with 100 μL/well assay buffer (HBSS, 20 mM HEPES, pH 7.4) and 100 μL/well Calcium 6 loading dye (R8190; Molecular Devices, San Jose, CA, USA). During dye loading, cells were incubated at 37 °C and 5% CO2 for 2 h. MDL29,951 or KCl was added to the wells and fluorescence (485 nm excitation, 525 nm emission, and 515 nm automatic emission cutoff) was measured using a Molecular Devices FlexStation3 (Molecular Devices) at 37 °C. For experiments with PTX, cells were pretreated with 100 ng/mL PTX overnight and 100 ng/mL PTX was included with Calcium 6 loading dye for calcium flux assays. For experiments with YM-254890, cells were pretreated for 30 min at 37 °C.

HEK293 cells = assay: GloSensor cAMP in HEK293 cells transfected with empty vector (EV); type: cell-based; settings: 100 μM MDL29,951, 3 µM forskolin
Method: HEK293 cells were maintained and transfected as previously described.
(§3) Live-cell, real-time cAMP measurements were performed using Promega (Madison, WI, USA) GloSensor cAMP luminescent biosensor technology. Glosensor cAMP experiments were conducted as previously described in GLUTag cells and HEK293 cells.

hGPR17L-V96M [3] = biological target: T2, hGPR17L-V96M (Homo sapiens, UniProt Q13304, V96M); assay: Calcium flux in GLUTag cells expressing hGPR17L-V96M; type: cell-based; settings: for Mean Diff. (Tukey's multiple comparisons test, Figure 4C): hGPR17L-V96M
T2 construct: host or cells: GLUTag cells, adenoviral transduction
T2 sequence (Q13304 whole entry V96M): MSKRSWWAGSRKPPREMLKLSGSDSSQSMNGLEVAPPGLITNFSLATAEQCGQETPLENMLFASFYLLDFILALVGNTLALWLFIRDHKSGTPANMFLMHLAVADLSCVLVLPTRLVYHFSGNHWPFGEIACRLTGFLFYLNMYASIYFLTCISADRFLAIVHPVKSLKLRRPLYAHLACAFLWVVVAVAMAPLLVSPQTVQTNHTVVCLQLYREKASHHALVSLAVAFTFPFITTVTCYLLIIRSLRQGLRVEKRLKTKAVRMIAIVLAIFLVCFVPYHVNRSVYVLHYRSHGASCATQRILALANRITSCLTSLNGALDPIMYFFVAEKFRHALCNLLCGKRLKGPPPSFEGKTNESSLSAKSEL
Method: as §1, §2

GLUTag cells [4] = assay: GLP-1 secretion from control-transduced or untransduced GLUTag cells; type: cell-based, murine
Method: as §1
(§4) GLUTag cells were seeded into poly-D-lysine-coated 96-well plates and transduced with adenovirus as specified above and then tested for GLP-1 secretion. Medium was removed and cells were washed two times with GLP-1 secretion buffer (138 mM NaCl, 4.5 mM KCl, 4.2 mM NaHCO3, 2.5 mM CaCl2, 1.2 mM MgCl2, 10 mM HEPES, 1 mM glucose, and 0.1% bovine serum albumin, pH 7.4). Cells were stimulated for 2 h with indicated treatments diluted in GLP-1 secretion buffer for a total volume of 200 µL/well at 37 °C and 5% CO2. Plates were then centrifuged at 300× g for 1 min at 4 °C, and 75 µL of the supernatant was removed and frozen at −80 °C until subsequent GLP-1 quantification. Total GLP-1 was quantified using the Meso Scale Discovery Total GLP-1 V-PLEX kit (Rockville, MD, USA; K1503PD) according to manufacturer’s instructions. For PTX treatment conditions, cells were pretreated with 100 ng/mL PTX overnight. For experiments with YM-254890, cells were pretreated for 15 min at 37 °C and 5% CO2.

hGPR17L [5] = biological target: T1, hGPR17L; assay: Live-cell GloSensor cAMP in GLUTag cells transfected with hGPR17L; type: cell-based; parameters: host or cells: GLUTag cells (murine enteroendocrine line), adenoviral transduction; settings: MDL29,951 alone or together with forskolin
Method: as §3

hGPR17L [6] = biological target: T1, hGPR17L; assay: GLP-1 secretion from GLUTag cells expressing hGPR17L; type: cell-based; parameters: host or cells: GLUTag cells (murine enteroendocrine line), adenoviral transduction
Method: as §1, §4

hGPR17L-V96M [7] = biological target: T2, hGPR17L-V96M; assay: GLP-1 secretion from GLUTag cells expressing hGPR17L-V96M; type: cell-based; settings: 100 µM MDL29,951, GLUTag hGPR17L-V96M
Method: as §1
as §4, with “Cells were stimulated for 2 h with indicated treatments diluted in GLP-1 secretion buffer for a total volume of 200 µL/well at 37 °C and 5% CO2.” left out, “For PTX treatment conditions, cells were pretreated with 100 ng/mL PTX overnight. For experiments with YM-254890, cells were pretreated for 15 min at 37 °C and 5% CO2.” left out

mGPR17 = mGPR17 (Mus musculus, UniProt Q6NS65); assay: GLP-1 secretion from GLUTag cells expressing mGPR17; type: cell-based; parameters: host or cells: GLUTag cells, adenoviral transduction; settings: 100 µM MDL29,951, GLUTag mGPR17
mGPR17, sequence (Q6NS65 whole entry): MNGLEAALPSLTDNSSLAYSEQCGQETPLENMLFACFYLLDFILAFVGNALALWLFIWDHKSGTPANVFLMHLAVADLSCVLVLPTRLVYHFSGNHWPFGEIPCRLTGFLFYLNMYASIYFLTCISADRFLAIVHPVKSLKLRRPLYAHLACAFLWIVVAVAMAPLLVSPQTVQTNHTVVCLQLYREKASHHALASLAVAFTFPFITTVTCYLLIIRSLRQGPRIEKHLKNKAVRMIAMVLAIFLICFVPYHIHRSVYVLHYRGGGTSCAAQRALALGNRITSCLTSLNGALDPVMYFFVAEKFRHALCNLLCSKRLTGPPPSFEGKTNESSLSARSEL
Method: as §1
as §4, with “Cells were stimulated for 2 h with indicated treatments diluted in GLP-1 secretion buffer for a total volume of 200 µL/well at 37 °C and 5% CO2.” left out, “For PTX treatment conditions, cells were pretreated with 100 ng/mL PTX overnight. For experiments with YM-254890, cells were pretreated for 15 min at 37 °C and 5% CO2.” left out

[8] = log [MDL29,951] (M) -4.5 vs. Vehicle
[9] = log [MDL29,951] (M) -5.0 vs. Vehicle
[10] = log [MDL29,951] (M) -5.5 vs. Vehicle
[11] = log [MDL29,951] (M) -6.0 vs. Vehicle
[12] = log [MDL29,951] (M) -6.4 vs. Vehicle
[13] = log [MDL29,951] (M) -6.9 vs. Vehicle
[14] = log [MDL29,951] (M) -7.4 vs. Vehicle
[15] = log [MDL29,951] (M) -7.9 vs. Vehicle
[16] = log [MDL29,951] (M) -8.3 vs. Vehicle
[17] = log [MDL29,951] (M) -8.8 vs. Vehicle

T1 sequence (Q13304 whole entry): as the sequence (Q13304 whole entry V96M) above, with M96V counted along it

O=C(O)CCc1c(C(=O)O)[nH]c2cc(Cl)cc(Cl)c12 [MDL29,951]
β-arrestin Emax (Peak ΔRLU/RLU) (hGPR17L [1]): 0.50±0.03
β-arrestin Potency (pEC50) (hGPR17L [1]): 6.72±0.09
EC50 (hGPR17L [1]; read-out: β-arrestin Potency EC50): 190 nM
peak ΔF/F, calcium flux (GLUTag cells [2]; 30 µM MDL29,951, control-transduced cells): 0.01 ± 0.01
Mean Diff. (GLUTag cells [2]; [8]): -0.01567
Mean Diff. (GLUTag cells [2]; [9]): -0.01433
Mean Diff. (GLUTag cells [2]; [10]): -0.0003333
Mean Diff. (GLUTag cells [2]; [11]): 0.0006667
Mean Diff. (GLUTag cells [2]; [12]): 0.01533
Mean Diff. (GLUTag cells [2]; [13]): 0.002
Mean Diff. (GLUTag cells [2]; [14]): 0.002667
Mean Diff. (GLUTag cells [2]; [15]): 0.004333
Mean Diff. (GLUTag cells [2]; [16]): -0.001667
Mean Diff. (GLUTag cells [2]; [17]): -0.0003333
cAMP Effect of 100 μM MDL (% Inhibition) (HEK293 cells): 7.5±3.2%
maximal calcium stimulation, % of that observed for hGPR17L-WT (hGPR17L-V96M [3]; GLUTag hGPR17L-V96M): 27 ± 1.5%
pEC50, calcium mobilization (hGPR17L-V96M [3]; GLUTag hGPR17L-V96M): 6.24 ± 0.07
EC50 (hGPR17L-V96M [3]; GLUTag hGPR17L-V96M, read-out: EC50, calcium mobilization): 580 nM
Mean Diff. (Tukey's multiple comparisons test, Figure 4C) (hGPR17L-V96M [3]; [8]): 27.53
Mean Diff. (Tukey's multiple comparisons test, Figure 4C) (hGPR17L-V96M [3]; [9]): 24.23
Mean Diff. (Tukey's multiple comparisons test, Figure 4C) (hGPR17L-V96M [3]; [10]): 21.87
Mean Diff. (Tukey's multiple comparisons test, Figure 4C) (hGPR17L-V96M [3]; [11]): 17.65
Mean Diff. (Tukey's multiple comparisons test, Figure 4C) (hGPR17L-V96M [3]; [12]): 11.95
Mean Diff. (Tukey's multiple comparisons test, Figure 4C) (hGPR17L-V96M [3]; [13]): 4.328
Mean Diff. (Tukey's multiple comparisons test, Figure 4C) (hGPR17L-V96M [3]; [14]): 1.581
Mean Diff. (Tukey's multiple comparisons test, Figure 4C) (hGPR17L-V96M [3]; [15]): 0.8859
Mean Diff. (Tukey's multiple comparisons test, Figure 4C) (hGPR17L-V96M [3]; [16]): 0.4181
Mean Diff. (Tukey's multiple comparisons test, Figure 4C) (hGPR17L-V96M [3]; [17]): -0.03776
effect on F/I-stimulated GLP-1 secretion (GLUTag cells [4]; 100 nM MDL29,951, control-transduced cells): no effect
effect on GLP-1 secretion under basal conditions (GLUTag cells [4]; 100 nM or 100 µM MDL29,951, control-transduced): no effect
effect on F/I-stimulated GLP-1 secretion (GLUTag cells [4]; 100 µM MDL29,951, control adenovirus): no effect
pattern of cAMP modulation, live-cell bioluminescent cAMP biosensor (hGPR17L [5]): biphasic pattern
concentration at which maximum inhibition of F/I-stimulated GLP-1 secretion was observed (hGPR17L [6]): 25 µM
effect on F/I-stimulated GLP-1 secretion (hGPR17L [6]; 100 nM MDL29,951, 10 μM forskolin and 10 μM IBMX): no effect
effect on GLP-1 secretion under basal conditions (hGPR17L [6]; 100 nM or 100 µM MDL29,951, hGPR17L-transduced): no effect
IC50 (hGPR17L [6]; 10 µM forskolin and 10 µM IBMX, no antagonist, read-out: IC50, inhibition of F/I-stimulated GLP-1 secretion): 300 nM
inhibition of F/I-stimulated GLP-1 secretion (hGPR17L [6]; 100 μM MDL29,951): 30 ± 7.7%
effect on PMA-stimulated GLP-1 secretion as compared to vehicle-treated cells (raw data) (hGPR17L [6]; 100 µM MDL29,951, 300 nM PMA): significantly inhibited
pIC50, inhibition of F/I-stimulated GLP-1 secretion (hGPR17L [6]; no antagonist): 6.53 ± 0.31
effect on F/I-stimulated GLP-1 secretion (hGPR17L-V96M [7]): no effect
effect on F/I-stimulated GLP-1 secretion (mGPR17): significantly inhibited
